According to PMC7479175, “Selection of Potent Inhibitors of Soluble Epoxide Hydrolase for Usage in Veterinary Medicine” (Frontiers in Veterinary Science, 2020):
Where two headings read alike, the source gives them in different places.

Assay: Solubility of inhibitors in different solvents
Assay type: physicochemical
Details: thermodynamic from solid
Description: The un-dissolved compounds were filtered through a 0.22 μm centrifuge filter at 30 or 40°C and the supernatant further diluted 10-fold with methanol. The concentration of t-TUCB in the samples was determined by LC/MS/MS analysis as previously described ([15]).

For `O=C(Nc1ccc(OC(F)(F)F)cc1)N[C@H]1CC[C@H](Oc2ccc(C(=O)O)cc2)CC1` [1,728, trans-4-{4-[3-(4-trifluoromethoxy-phenyl)-ureido]-cyclohexyloxy}-benzoic acid], the solubility at 24 h (aqueous buffer, Phosphate Buffer (0.1 M pH 7.4), 30°C, read-out: Solubility) was 0.011 mM, the solubility at 24 h (aqueous buffer, Phosphate Buffer (0.1 M pH 7.4), 40°C, read-out: Solubility in mg/mL) was 0.01 mg/mL and the solubility at 24 h (aqueous with cosolvent or surfactant or cyclodextrin, Tween 80, 30°C, read-out: Solubility) was 18 mM. It also gave a solubility at 24 h (aqueous with cosolvent or surfactant or cyclodextrin, Tween 80, 40°C, read-out: Solubility) of 34 mM, a solubility at 24 h (oil or lipid, Oleic rich oil, 30°C, read-out: Solubility) of 0.31 mM and a solubility at 24 h (oil or lipid, Oleic rich oil, 30°C, read-out: Solubility in mg/mL) of 0.13 mg/mL. For the same compound, the solubility at 24 h (oil or lipid, Oleic rich oil, 40°C, read-out: Solubility in mg/mL) was 0.1 mg/mL, the solubility at 24 h (organic solvent or mixture, Carbitol, 30°C, read-out: Solubility) was 83 mM and the solubility at 24 h (organic solvent or mixture, Carbitol, 30°C, read-out: Solubility in mg/mL) was 37 mg/mL. For the same compound, the solubility at 24 h (organic solvent or mixture, DMSO, 30°C, read-out: Solubility) was 299 mM, the solubility at 24 h (organic solvent or mixture, DMSO, 30°C, read-out: Solubility in mg/mL) was 131 mg/mL and the solubility at 24 h (organic solvent or mixture, DMSO, 40°C, read-out: Solubility) was 580 mM. It also gave a solubility at 24 h (organic solvent or mixture, DMSO, 40°C, read-out: Solubility in mg/mL) of 254 mg/mL, a solubility at 24 h (organic solvent or mixture, Ethanol, 30°C, read-out: Solubility) of 9 mM and a solubility at 24 h (organic solvent or mixture, Ethanol, 30°C, read-out: Solubility in mg/mL) of 4 mg/mL. The solubility at 24 h (organic solvent or mixture, Ethanol, 40°C, read-out: Solubility) was 32 mM, the solubility at 24 h (organic solvent or mixture, Ethanol, 40°C, read-out: Solubility in mg/mL) was 14 mg/mL and the solubility at 24 h (organic solvent or mixture, Glycerol, 30°C, read-out: Solubility) was 0.13 mM. It also gave a solubility at 24 h (organic solvent or mixture, Glycerol, 30°C, read-out: Solubility in mg/mL) of 0.06 mg/mL, a solubility at 24 h (organic solvent or mixture, Glycerol, 40°C, read-out: Solubility) of 0.41 mM and a solubility at 24 h (organic solvent or mixture, Glycerol, 40°C, read-out: Solubility in mg/mL) of 0.18 mg/mL. For the same compound, the solubility at 24 h (organic solvent or mixture, PEG200, 30°C, read-out: Solubility) was 195 mM, the solubility at 24 h (organic solvent or mixture, PEG200, 30°C, read-out: Solubility in mg/mL) was 85 mg/mL and the solubility at 24 h (organic solvent or mixture, PEG200, 40°C, read-out: Solubility) was 207 mM. The solubility at 24 h (organic solvent or mixture, PEG200, 40°C, read-out: Solubility in mg/mL) was 91 mg/mL, the solubility at 24 h (organic solvent or mixture, PEG300, 40°C, read-out: Solubility) was 254 mM and the solubility at 24 h (organic solvent or mixture, PEG300, 40°C, read-out: Solubility in mg/mL) was 111 mg/mL. The solubility at 24 h (organic solvent or mixture, PEG400, 30°C, read-out: Solubility) was 40 mM, the solubility at 24 h (organic solvent or mixture, PEG400, 30°C, read-out: Solubility in mg/mL) was 18 mg/mL and the solubility at 24 h (organic solvent or mixture, PEG400, 40°C, read-out: Solubility) was 57 mM. The solubility at 24 h (organic solvent or mixture, PEG400, 40°C, read-out: Solubility in mg/mL) was 25 mg/mL, the solubility at 24 h (organic solvent or mixture, Propylene glycol, 30°C, read-out: Solubility) was 9 mM and the solubility at 24 h (organic solvent or mixture, Propylene glycol, 30°C, read-out: Solubility in mg/mL) was 4 mg/mL. For the same compound, the solubility at 24 h (organic solvent or mixture, Propylene glycol, 40°C, read-out: Solubility) was 14 mM, the solubility at 24 h (organic solvent or mixture, Propylene glycol, 40°C, read-out: Solubility in mg/mL) was 6 mg/mL and the solubility at 24 h (organic solvent or mixture, Tween 80, 30°C, read-out: Solubility in mg/mL) was 8 mg/mL. For the same compound, the solubility at 24 h (organic solvent or mixture, Tween 80, 40°C, read-out: Solubility in mg/mL) was 15 mg/mL and the solubility at 24 h (organic solvent or mixture, such as Carbitol and polyethylene glycol (PEG), read-out: solubility in numerous organic liquids used in the formulation of drugs) was over 20 mg/mL.
